Key:
[1] = target: wild type MLL1 four-member complex (MLL1-4C) (Homo sapiens, UniProt P61964); test: MLL1 LC-MS assay (SAH production); format: biochemical; conditions: read-out: (b) MLL LCMS Peptide Val.v.1 Qualified AC50
How it was run: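 MLL1-4C (30 nM final) was preincubated 20 min with compound (3-fold dilutions, 8 or 12 points) and SAM in Tris-HCl pH 8.0 buffer. H3K4me0 peptide (histone H3[1-21]-biotin) was then added, giving final 2.5 μM SAM and 10 μM substrate, and reactions ran 120 min at rt. After TFA/d4-SAH quench, SAH was quantified by LC-MS/MS and IC50 fitted from control-normalised activity.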

WDR5 = WDR5 (Homo sapiens, UniProt P61964); test: WDR5 HTRF binding assay; conditions: read-out: (a) WDR5 HTRF Pep Val v.1[Inhibitor/IC50]Qualified AC50
How it was run: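 6 nM WDR5 and 20 nM biotin-MLL1 WIN peptide (3762-3773) were incubated with compound (12-point, 3-fold dilutions) in pH 7.5 Hepes/NaCl/DTT buffer for 20 min at rt. Streptavidin-APC plus anti-His-Eu were then added for 1 hr, with HTRF read at 665/615. IC50 was fit from control-normalized activity; the counter assay used 15 nM biotin-PEG-His peptide.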

MV4-11 cells = test: MV4-11 6-day cell growth CTG (CellTiter-Glo) assay; format: cell-based; conditions: Homo sapiens, MV4-11, 144 h, 6 days, read-out: (c) MLL/WDR5 cell proliferation assay//MLL/WDR5 proliferation MV4:11 Qualified AC50
How it was run: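 Exponentially growing MV4-11 AML cells (RPMI 1640, 10% FBS) seeded at 300 cells/well with 12-point 1:3 compound dilutions, top final concentration 50 μM. Viability read by CellTiter-Glo luminescence after 6 days at 37° C; % inhibition vs DMSO-only wells fitted to dose-response for IC50.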

| Compound | AC50 [1] | IC50 (WDR5) | AC50 (MV4-11 cells) |
| --- | --- | --- | --- |
| CCOc1cc([C@H](C)N2CCc3c(cc(CCN(C)CC)cc3-c3cn(C)c(=O)c(F)c3C)C2=O)ncc1C#N [Example 169, (S)-4-ethoxy-6-(1-(7-(2-(ethyl(methyl)amino)ethyl)-5-(5-fluoro-1,4-dimethyl-6-oxo-1,6-dihydropyridin-3-yl)-1-oxo-3,4-dihydroisoquinolin-2(1H)-yl)ethyl)nicotinonitrile] | 10 to 1000 nM | < 10 nM | 10 to 1000 nM |
| CCOc1cc([C@H](C)N2CCc3c(cc(CCN(C)CC)cc3-c3cn(CC)c(=O)cc3C)C2=O)ncc1C#N [Example 171, (S)-4-ethoxy-6-(1-(7-(2-(ethyl(methyl)amino)ethyl)-5-(1-ethyl-4-methyl-6-oxo-1,6-dihydropyridin-3-yl)-1-oxo-3,4-dihydroisoquinolin-2(1H)-yl)ethyl)nicotinonitrile] | 10 to 1000 nM | < 10 nM | 10 to 1000 nM |
| CCOc1cc([C@H](C)N2CCc3c(cc(CCN(C)CC)cc3-c3cc(C)ncc3C(F)F)C2=O)ncc1C#N [Example 172, (S)-6-(1-(5-(5-(difluoromethyl)-2-methylpyridin-4-yl)-7-(2-(ethyl(methyl)amino)ethyl)-1-oxo-3,4-dihydroisoquinolin-2(1H)-yl)ethyl)-4-ethoxynicotinonitrile] | 10 to 1000 nM | < 10 nM | 10 to 1000 nM |
| CCOc1cc([C@H](C)N2CCc3c(cc(CCN(C)CC)cc3-c3cn(C(F)F)c(=O)cc3Cl)C2=O)ncc1C#N [Example 174, (S)-6-(1-(5-(4-chloro-1-(difluoromethyl)-6-oxo-1,6-dihydropyridin-3-yl)-7-(2-(ethyl(methyl)amino)ethyl)-1-oxo-3,4-dihydroisoquinolin-2(1H)-yl)ethyl)-4 ethoxynicotinonitrile] | 10 to 1000 nM | < 10 nM | 10 to 1000 nM |
| CCOc1cc([C@H](C)N2CCc3c(cc(CCN(C)CC)cc3-c3c[nH]c(=O)cc3C(F)(F)F)C2=O)ncc1C#N [Example 176, (S)-4-ethoxy-6-(1-(7-(2-(ethyl(methyl)amino)ethyl)-1-oxo-5-(6-oxo-4-(trifluoromethyl)-1,6-dihydropyridin-3-yl)-3,4-dihydroisoquinolin-2(1H)-yl)ethyl)nicotinonitrile] | 10 to 1000 nM | < 10 nM | < 10 nM |
| CCOc1cc([C@H](C)N2CCc3c(cc(CCN(C)CC)cc3-c3cc(C(F)F)cnc3C)C2=O)ncc1C#N [Example 177, (S)-6-(1-(5-(5-(difluoromethyl)-2-methylpyridin-3-yl)-7-(2-(ethyl(methyl)amino)ethyl)-1-oxo-3,4-dihydroisoquinolin-2(1H)-yl)ethyl)-4-ethoxynicotinonitrile] | 10 to 1000 nM | < 10 nM | 10 to 1000 nM |
| CCOc1cc(CN2CCc3c(cc(CCN(C)CC)cc3-c3cc(C)ncc3C)C2=O)ncc1C#N [Example 179, 6-((5-(2,5-dimethylpyridin-4-yl)-7-(2-(ethyl(methyl)amino)ethyl)-1-oxo-3,4-dihydroisoquinolin-2(1H)-yl)rnethyl)-4-ethoxynicotinonitrile] | 10 to 1000 nM | < 10 nM | 10 to 1000 nM |
| CCOc1cc(CN2CCc3c(cc(CCN(C)CC)cc3-c3cc(N)ncc3C)C2=O)ncc1C#N [Example 180, 6-((5-(2-amino-5-methylpyridin-4-yl)-7-(2-(ethyl(methyl)amino)ethyl)-1-oxo-3,4-dihydroisoquinolin-2(1H)-yl)rnethyl)-4-ethoxynicotinonitrile] | 10 to 1000 nM | < 10 nM | 10 to 1000 nM |
| CCOc1cc([C@H](C)N2CCc3c(cc(CCN(C)CC)cc3-c3cc4ocnc4nc3C)C2=O)ncc1C#N [Example 181, (S)-4-ethoxy-6-(1-(7-(2-(ethyl(methyl)amino)ethyl)-5-(5-methyloxazolo[4,5-b]pyridin-6-yl)-1-oxo-3,4-dihydroisoquinolin-2(1H)-yl)ethyl)nicotinonitrile] | 10 to 1000 nM | < 10 nM | 10 to 1000 nM |
| CCOc1cc([C@H](C)N2CCc3c(cc(CCN(C)CC)cc3-c3cn(C)c(=O)cc3C(F)(F)F)C2=O)ncc1C#N [Example 182, (S)-4-ethoxy-6-(1-(7-(2-(ethyl(methyl)amino)ethyl)-5-(1-methyl-6-oxo-4-(trifluoromethyl)-1,6-dihydropyridin-3-yl)-1-oxo-3,4-dihydroisoquinolin-2(1H)-yl)ethyl)nicotinonitrile] | 10 to 1000 nM | < 10 nM | 10 to 1000 nM |
| CCOc1cc([C@H](C)N2CCc3c(cc(CCN(C)CC)cc3-c3cc(C(C)(C)O)ncc3C)C2=O)ncc1C#N [Example 184, (S)-4-ethoxy-6-(1-(7-(2-(ethyl(methyl)amino)ethyl)-5-(2-(2-hydroxypropan-2-yl)-5-methylpyridin-4-yl)-1-oxo-3,4-dihydroisoquinolin-2(1H)-yl)ethyl)nicotinonitrile] | 10 to 1000 nM | < 10 nM | 10 to 1000 nM |
| CCOc1cc([C@H](C)N2CCc3c(cc(CCN(C)CC)cc3-c3cc(C(C)=O)cnc3C)C2=O)ncc1C#N [Example 185, (S)-6-(1-(5-(5-acetyl-2-methylpyridin-3-yl)-7-(2-(ethyl(methyl)amino)ethyl)-1-oxo-3,4-dihydroisoquinolin-2(1H)-yl)ethyl)-4-ethoxynicotinonitrile] | 10 to 1000 nM | < 10 nM | 10 to 1000 nM |
| CCOc1cc([C@H](C)N2CCc3c(cc(CCN(C)CC)cc3-c3cc(C(C)O)cnc3C)C2=O)ncc1C#N (stereo partly drawn) [Example 186, 4-ethoxy-6-((1S)-1-(7-(2-(ethyl(methyl)amino)ethyl)-5-(5-(1-hydroxyethyl)-2-methylpyridin-3-yl)-1-oxo-3,4-dihydroisoquinolin-2(1H)-yl)ethyl)nicotinonitrile] | 10 to 1000 nM | < 10 nM | 10 to 1000 nM |

More lines, main results first:

| AC50 [1] | IC50 (WDR5) | Compound | AC50 (MV4-11 cells) |
| --- | --- | --- | --- |
| 10 to 1000 nM | < 10 nM | CCOc1cc([C@H](C)N2CCc3c(cc(CCN(C)CC)cc3-c3cc(OC)cnc3C)C2=O)ncc1C#N [Example 167, (S)-4-ethoxy-6-(1-(7-(2-(ethyl(methyl)amino)ethyl)-5-(5-methoxy-2-methylpyridin-3-yl)-1-oxo-3,4-dihydroisoquinolin-2(1H)-yl)ethyl)nicotinonitrile] | 10 to 1000 nM |
| 10 to 1000 nM | < 10 nM | CCOc1cc(C(C)N2CCc3c(cc(CCN(C)CC)cc3-c3cc(Cl)nnc3Cl)C2=O)ncc1C#N (stereo not drawn) [Example 168, 6-(1-(5-(3,6-dichloropyridazin-4-yl)-7-(2-(ethyl(methyl)amino)ethyl)-1-oxo-3,4-dihydroisoquinolin-2(1H)-yl)ethyl)-4-ethoxynicotinonitrile] | 10 to 1000 nM |
| 10 to 1000 nM | < 10 nM | CCOc1cc([C@H](C)N2CCc3c(cc(CCN(C)CC)cc3-c3cn(C)c(=O)c(Cl)c3C)C2=O)ncc1C#N [Example 170, (S)-6-(1-(5-(5-chloro-1,4-dimethyl-6-oxo-1,6-dihydropyridin-3-yl)-7-(2-(ethyl(methyl)amino)ethyl)-1-oxo-3,4-dihydroisoquinolin-2(1H)-yl)ethyl)-4-ethoxynicotinonitrile] | 10 to 1000 nM |
| 10 to 1000 nM | < 10 nM | CCOc1cc([C@H](C)N2CCc3c(cc(CCN(C)CC)cc3-c3cc(C)nnc3C)C2=O)ncc1C#N [Example 173, (S)-6-(1-(5-(3,6-dimethylpyridazin-4-yl)-7-(2-(ethyl(methyl)amino)ethyl)-1-oxo-3,4-dihydroisoquinolin-2(1H)-yl)ethyl)-4-ethoxynicotinonitrile] | 10 to 1000 nM |
| 10 to 1000 nM | < 10 nM | CCOc1cc([C@H](C)N2CCc3c(cc(CCN(C)CC)cc3-c3cn(C)c(=O)cc3Cl)C2=O)ncc1C#N [Example 175, (S)-6-(1-(5-(4-chloro-1-methyl-6-oxo-1,6-dihydropyridin-3-yl)-7-(2-(ethyl(methyl)amino)ethyl)-1-oxo-3,4-dihydroisoquinolin-2(1H)-yl)ethyl)-4-ethoxynicotinonitrile] | 10 to 1000 nM |
| 10 to 1000 nM | < 10 nM | CCOc1cc([C@H](C)N2CCc3c(cc(CCN(C)CC)cc3-c3ccc(N)nc3Cl)C2=O)ncc1C#N [Example 178, (S)-6-(1-(5-(6-amino-2-chloropyridin-3-yl)-7-(2-(ethyl(methyl)amino)ethyl)-1-oxo-3,4-dihydroisoquinolin-2(1H)-yl)ethyl)-4-ethoxynicotinonitrile] | 10 to 1000 nM |
| 10 to 1000 nM | < 10 nM | CCOc1cc([C@H](C)N2CCc3c(cc(CCN(C)CC)cc3-c3cc(N)ncc3Cl)C2=O)ncc1C#N [Example 183, (S)-6-(1-(5-(2-amino-5-chloropyridin-4-yl)-7-(2-(ethyl(methyl)amino)ethyl)-1-oxo-3,4-dihydroisoquinolin-2(1H)-yl)ethyl)-4-ethoxynicotinonitrile] | 10 to 1000 nM |
| 10 to 1000 nM | < 10 nM | CCOc1cc([C@H](C)N2CCc3c(cc(CCN(C)CC)cc3-c3cc(N)cnc3C)C2=O)ncc1C#N [Example 187, (S)-6-(1-(5-(5-amino-2-methylpyridin-3-yl)-7-(2-(ethyl(methyl)amino)ethyl)-1-oxo-3,4-dihydroisoquinolin-2(1H)-yl)ethyl)-4-ethoxynicotinonitrile] | 10 to 1000 nM |
